Here are results for 4 molecules from patent US20070293542A1, “Selective Cox-2 Inhibitors” (priority 2003, published 2007).

The melting point is the temperature of the solid-liquid transition. For orientation: pIC50 means −log10 of the IC50, conventionally taken in molar units.

pIC50: −log10 of the molar value.

For one series, the target named is T1, human COX-2 (Homo sapiens, UniProt P35354).
T1 construct: purchased Cayman Chemical (Ann Arbor, Mich.)
T1 sequence (P35354 18-604): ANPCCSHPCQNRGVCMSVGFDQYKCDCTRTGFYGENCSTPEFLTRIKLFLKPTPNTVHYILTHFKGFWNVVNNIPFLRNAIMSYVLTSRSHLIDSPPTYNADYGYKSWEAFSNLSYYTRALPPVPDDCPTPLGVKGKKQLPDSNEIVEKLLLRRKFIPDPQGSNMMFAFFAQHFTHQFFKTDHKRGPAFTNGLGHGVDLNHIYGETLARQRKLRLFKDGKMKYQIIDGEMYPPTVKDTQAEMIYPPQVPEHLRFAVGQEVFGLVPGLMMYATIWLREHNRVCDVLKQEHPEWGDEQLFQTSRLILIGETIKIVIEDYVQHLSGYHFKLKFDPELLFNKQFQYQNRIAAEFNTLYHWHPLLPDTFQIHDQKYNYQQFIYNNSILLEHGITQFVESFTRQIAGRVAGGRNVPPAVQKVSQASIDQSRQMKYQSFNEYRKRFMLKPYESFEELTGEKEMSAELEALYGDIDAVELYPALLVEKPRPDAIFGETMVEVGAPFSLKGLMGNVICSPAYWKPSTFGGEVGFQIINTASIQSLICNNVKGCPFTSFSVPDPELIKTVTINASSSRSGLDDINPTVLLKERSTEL
Put plainly: COX-2 purified enzyme assay (Cayman Chemical kit, PGH2 production detected as PGF2α by EIA). The format is biochemical. The settings on record: for COX-2 selectivity (IC50 for COX-1/IC50 for COX-2): ovine COX-1 vs human COX-2, purified enzymes; for pIC50: purified human COX-2, read-out: IC50 for inhibition of COX-2. From the text: . Because COX-1 and COX-2 convert arachidonic acid to prostaglandin H2 (PGH2), one can assess COX inhibitory activity of a test compound by measuring the effect of the compound on PGH2 production in the presence of purified COX-1 enzyme and, in a separate assay, in the presence of purified COX-2 enzyme. In this assay, the production of PGH2 can be measured by reducing PGH2 to prostaglandin F2α (PGF2α) with SnCl2 and then detecting PGF2α by enzyme immunoassay (EIA) using a suitable antibody.
. Using the methods described above, the inhibition of human COX-2 and ovine COX-1 by desbenzoylindomethacin was measured. […]

The next series has as its target T2, ovine COX-1 (Ovis aries, UniProt P05979).
T2 construct: purchased Cayman Chemical (Ann Arbor, Mich.)
T2 sequence (P05979 25-600): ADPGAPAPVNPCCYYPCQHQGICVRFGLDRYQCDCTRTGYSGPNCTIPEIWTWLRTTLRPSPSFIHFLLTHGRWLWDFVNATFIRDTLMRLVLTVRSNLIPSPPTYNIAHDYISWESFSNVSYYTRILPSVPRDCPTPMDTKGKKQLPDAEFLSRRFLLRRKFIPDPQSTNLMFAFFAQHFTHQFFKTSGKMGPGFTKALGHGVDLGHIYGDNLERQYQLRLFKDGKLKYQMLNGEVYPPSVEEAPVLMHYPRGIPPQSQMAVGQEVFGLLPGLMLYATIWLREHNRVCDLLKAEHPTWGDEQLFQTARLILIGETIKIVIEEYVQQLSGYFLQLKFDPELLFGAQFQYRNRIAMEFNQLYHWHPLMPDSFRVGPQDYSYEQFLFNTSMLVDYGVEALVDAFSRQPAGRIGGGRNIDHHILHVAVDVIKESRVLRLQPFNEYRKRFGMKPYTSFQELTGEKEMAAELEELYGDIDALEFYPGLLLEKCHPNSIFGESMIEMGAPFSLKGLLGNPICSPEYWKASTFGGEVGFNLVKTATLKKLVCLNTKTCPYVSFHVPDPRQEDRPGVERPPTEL
Put plainly: COX-1 purified enzyme assay (Cayman Chemical kit, PGH2 production detected as PGF2α by EIA). The format is biochemical. The settings on record: purified ovine COX-1; read-out: IC50 for inhibition of COX-1. An excerpt: Because COX-1 and COX-2 convert arachidonic acid to prostaglandin H2 (PGH2), one can assess COX inhibitory activity of a test compound by measuring the effect of the compound on PGH2 production in the presence of purified COX-1 enzyme and, in a separate assay, in the presence of purified COX-2 enzyme. In this assay, the production of PGH2 can be measured by reducing PGH2 to prostaglandin F2α (PGF2α) with SnCl2 and then detecting PGF2α by enzyme immunoassay (EIA) using a suitable antibody.
Using the methods described above, the inhibition of human COX-2 and ovine COX-1 by desbenzoylindomethacin was measured.

In the next series the test system is prostaglandin synthesis. The settings on record: reported by Shen and Winter 1977; cited from earlier work.

Regarding `Cc1c(CC(=O)O)c2cc(O)ccc2n1C(=O)c1ccccc1` [compound 5, (1-benzoyl-5-hydroxy-2-methyl-1H-indol-3-yl)acetic acid], the melting point was 186 to 188 °C.
The same measure, in the same setting: under `Cc1c(CC(=O)O)c2cc(O)c(F)cc2n1C(=O)c1ccccc1` [compound 12, (1-benzoyl-6-fluoro-5-hydroxy-2-methyl-1H-indol-3-yl)acetic acid] stands 159 to 161 °C.
On to `COc1ccc2[nH]c(C)c(CC(=O)O)c2c1` [desbenzoylindomethacin], for which the “potency reduced relative to indomethacin” value on human COX-2 (COX-1 and COX-2 purified enzyme assays) is listed as approximately 100 fold. On human COX-2, the “COX-2 selectivity (IC50 for COX-1/IC50 for COX-2)” value is listed as 1.6 and the pIC50 was 4.92. Moreover, the pIC50 on ovine COX-1 was 4.70.
Consider `Cc1c(CC(=O)O)c2cc(O)ccc2n1C(=O)c1ccc(Cl)cc1` [desmethylindomethacin, 1-(p-Chlorobenzoyl)-5-hydroxy-2-methylindole-3-acetic acid], for which, at human COX-2, the “COX-2 selectivity (IC50 for COX-1/IC50 for COX-2)” value was 50-150 and the pIC50 is 6.52 to 7.00. Moreover, in the series on prostaglandin synthesis, the “ability to inhibit prostaglandin synthesis” value is “some ability to inhibit prostaglandin synthesis”. The pIC50 on ovine COX-1 was 4.82.
